Source: US5277897A, “In vivo enhancement of cellular accumulation of lipophilic cationic organometallic compounds by reduction of intramembrane potential” (Brigham and Women's Hospital, priority 1992, dated 1994)

Tests used:
[1] = system: cultured chick heart cells; test: Effect of 8-anilino-1-naphthalene sulfonic acid on net uptake of Tc-MIBI in cultured chick heart cells (FIG. 9); type: cell-based; conditions: Gallus gallus, 0.5 h; 8-ANS 10^-4 M, within 30 minutes; read-out: net uptake of Tc-MIBI enhanced over the control
Protocol: FIG. 9. Effect of 8-anilino-1-naphthalene sulfonic acid on net uptake of Tc-M1B1 in cultured chick heart cells. Preparations were incubated for the times indicated in Tc-MIBI loading buffer in the absence (.quadrature.) and presence of 8-ANS ( , 10^-7 M; , 10^-4 M). Each point represents the mean ±SEM of 3-4 determinations.
(§1) Monolayers of spontaneously contractile chick ventricular myocardial cells were obtained from disaggregated 10-day old chick embryo hearts by a slight modification of previously published methods (Horres, C. R., et al., In Pinson, A. (ed.), The Heart Cell in Culture, Boca Raton, CRC Press, pp. 77-108 (1987)). Hearts were trimmed of connective tissue and atria, finely minced and serially exposed to 0.024% (w/v) trypsin in Ca^2+ - and Mg^2+ - free Earle's salt solution for 7 minutes at 37° C. Gentle trituration and agitation on an orbital shaker bath aided disaggregation. Cells released from the first exposure were discarded and cells aspirated from the next four exposures were then added to an equal volume of trypsin deactivating solution consisting of ice-cold culture medium. Cells were centrifuged at 400 g for 10 minutes, resuspended and combined in culture medium, counted with a hemocytometer and diluted to yield a suspension of 5×10^5 cells/ml. […]

[2] = system: cultured chick heart cells; test: Effect of TPB on net accumulation of Tc-MIBI in cultured chick heart cells (FIG. 1); type: cell-based; conditions: TPB 10^-5 M; P <0.001
Protocol: FIG. 1. Effect of TPB on net accumulation of Tc-MIBI in cultured chick heart cells. Preparations were incubated for the times indicated in Modified Earle's Basic Salt Solution (MEBSS) control buffer containing tracer Tc-MIBI alone (.quadrature.) and with various concentrations of tetraphenylborate: ( ) 10^-9 M; ( ) 5×10^-7 M; (·) 10^-5 M. Results are expressed as fmol cellular Tc-MIBI/mg protein per nM extracellular Tc MIBI. Each point represents the mean ±SEM of 3 determinations.
Control buffer was a modified Earle's balanced salt solution (MEBSS) with the following composition (mN) Na^30, 145; K^+, 5.4; Ca^2, 1.2; Mg^2+, 0.8; Cl, 152; H2 PO4, 0.8; SO4^2-, 0.8; dextrose, 5.6; HEPES, 4.0; and bovine calf serum, 1% (v/v); pH 78.4±0.05; 37° C. […]
Monolayers of spontaneously contractile chick ventricular myocardial cells were obtained from disaggregated 10-day old chick embryo hearts by a slight modification of previously published methods (Horres, C. R., et al., In Pinson, A. (ed.), The Heart Cell in Culture, Boca Raton, CRC Press, pp. 77-108 (1987)). […] Cells were centrifuged at 400 g for 10 minutes, resuspended and combined in culture medium, counted with a hemocytometer and diluted to yield a suspension of 5×10^5 cells/ml. […]

[3] = system: cultured chick heart cells; test: Concentration-effect curve for TPB enhancement of 2-minute uptake of Tc-MIBI (FIG. 2); type: cell-based
Protocol: FIG. 2. Concentration-effect curve for TPB enhancement of 2-minute uptake of Tc-MIBI. Preparations were pre-incubated for 1 minute in control MEBSS buffer containing TPB at the indicated concentrations prior to determination of tracer Tc-MIBI uptake in the continued presence of TPB. Each point represents the mean ±SEM of 3 determinations.
as §1

[4] = system: cultured chick heart cells; test: Influence of TPB and CCCP on (membrane potential-independent) accumulation of Tc-MIBI (FIG. 4); type: cell-based; conditions: TPB; CCCP
Protocol: FIG. 4. […] Preparations were incubated for the times indicated in 5.4 mM Ko control loading buffer containing tracer Tc-MIBI and TPB together (Δ) or in loading buffer containing Tc-MIBI alone (.quadrature.). For the latter incubation, TPB was added to the loading buffer at the arrow and cell content of Tc-MIBI subsequently determined (o). Under each condition, CCCP was added to the loading buffers as indicated by the arrows and cell content of Tc-MIBI determined ( , , ·). Each point is the mean ±SEM of 3 determinations.
Monolayers of spontaneously contractile chick ventricular myocardial cells were obtained from disaggregated 10-day old chick embryo hearts by a slight modification of previously published methods (Horres, C. R., et al., In Pinson, A. (ed.), The Heart Cell in Culture, Boca Raton, CRC Press, pp. 77-108 (1987)). Hearts were trimmed of connective tissue and atria, finely minced and serially exposed to 0.024% (w/v) trypsin in Ca^2+ - and Mg^2+ - free Earle's salt solution for 7 minutes at 37° C. Gentle trituration and agitation on an orbital shaker bath aided disaggregation. Cells released from the first exposure were discarded and cells aspirated from the next four exposures were then added to an equal volume of trypsin deactivating solution consisting of ice-cold culture medium. Cells were centrifuged at 400 g for 10 minutes, resuspended and combined in culture medium, counted with a hemocytometer and diluted to yield a suspension of 5×10^5 cells/ml. 12 ml of suspension were incubated in 100 mm plastic culture dishes containing 7 coverslips (25 mm diameter) placed on the bottom of each dish to serve as substrate for cell growth. Cells were maintained in a humidified atmosphere of 5% CO2 /95% air for 3-4 days yielding a confluent layer of spontaneously contractile myocytes on each coverslip.
Radioactive uptake methods have been described in detail (Piwnica-Worms, D., et al, Circ. (in press). Briefly, coverslips with confluent cells were removed from culture media and pre-equilibrated for 40-60 seconds in MEBSS buffer. Uptake and retention experiments were initiated by immersion of coverslips in 60 mm glass Pyrex dishes containing loading solution consisting of buffer with 0.1-0.6 nM [^99m Tc-MIBI] (0.01-0.4 Ci/nmole; 25-100 uCi/ml). Preparations were removed at various times and rinsed three times in 25 ml volumes of ice-cold (2° C.) isotope-free buffer for 8 seconds each to clear extracellular spaces. Preparations and aliquots of the loading buffer and stock solutions were counted in a well-type sodium iodide gamma counter after which cell protein on each coverslip was extracted in 1% sodium dodecylsulfate with 10 mM sodium borate and assayed by the method of Lowry (Lowry, O. H., et al., J. Biol. Chem. 193:265-275 (1951)). Tc-MIBI binding to glass coverslips without cells was used as an estimate of non-specific adhesion to the substrate ([…] obtained with cellular preparations); this value was subtracted from total uptake determinations to derive the cell-associated counts. Use of generator equilibrium equations (Lamson, M. L., et al., i J. Nucl. Med. 16:639-641 (1975)) allowed calculation of absolute moles of Tc-MIBI in solutions and preparations. Results were therefore expressed as fmol cellular Tc-MIBI/mg protein per nM extracellular Tc-MIBI concentration. […]

[5] = Effect of tetraphenylborate on the biodistribution of Tc-MIBI in rats (Table 2); type: in vivo; conditions: TPB vs no TPB
Protocol: The results are expressed as percent injected dose per gram of tissue. […] For this series of experiments, 50 microliters of dimethylsulfoxide lacking or containing 7.2 mM TPB were injected directly into the jugular vein of anesthetized rats immediately prior to the injection of Tc-MIBI (150 microliters; 100 microCuries per 200 microliters).
After 15 minutes, the animal was sacrificed by thoracotomy, organs extracted and placed in test tubes and counted for radioactivity in a standard well-type gamma counter. Tissue wet weights were obtained by subtracting fare weights from total weight of test tubes plus tissue.
Results are expressed as mean ±SEM of three determinations each.

[6] = system: cultured heart cells; test: TPB toxicity at high concentration in cultured heart cells; type: cell-based, chick; conditions: TPB 10^-4 M
[7] = system: perfused rabbit heart; conditions: ouabain 1.5×10^-6 M; cited from earlier work

Q: For `O=S(=O)(O)c1cccc2cccc(Nc3ccccc3)c12` [8-anilino-1-naphthalene sulfonic acid], which activation at 100 µM [1] is on record?
A: 25%

Q: Which results are given for `c1ccc([B-](c2ccccc2)(c2ccccc2)c2ccccc2)cc1` [TPB, tetraphenylborate]?
A: peak accumulation of Tc-MIBI, greater than control [2]: 4 fold; myocellular uptake of Tc-MIBI increased in a concentration-dependent manner up to [3]: up to 3×10^-5 M; EC50 ([3]; Gallus gallus, 1 minute pre-incubation with TPB, read-out: half-maximal concentration for TPB enhancement of myocellular uptake of Tc-MIBI): 3 µM; residual CCCP-insensitive Tc-MIBI content, of the TPB-enhanced Tc-MIBI content [4]: 13%; Tc-MIBI accumulation in liver, kidney, lung and blood [5]: significant increase in Tc-MIBI accumulation within the tissues; increase in tissue retention of Tc-MIBI, all tissues [5]: 50%; enhancement of Tc-MIBI accumulation / cellular toxicity [6]: relatively less enhancement of Tc-MIBI accumulation compared to moderate TPB concentrations suggesting cellular toxicity

Q: Which “net tissue extraction of Tc-MIBI” value [7] does the source give for `CC1OC(OC2CC(O)C3(CO)C4C(O)CC5(C)C(C6=CC(=O)OC6)CCC5(O)C4CCC3(O)C2)C(O)C(O)C1O` (stereo not drawn) [oaubain] here?
A: alter net tissue extraction of Tc-MIBI
